Among the data in patent US20130109682A1, “CYCLIC ETHER COMPOUNDS USEFUL AS KINASE INHIBITORS” (NOVARTIS AG, priority 2010, published 2013) are IC50 and EC50 values, retold here.

The target in one assay is GSK3β (Homo sapiens, UniProt P49841). Put plainly: GSK3β ATP depletion assay. The following applies: read-out: GSK3b IC50. It counts as biochemical. Put shortly:
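Human GSK3β (5 nM) preincubated 15 min with 10 μM biotinylated phospho-CREB peptide in pH 7.5 Tris buffer (15 mM MgCl2, 1 mM DTT, 0.1% BSA, 2.5% DMSO). Reaction started with 2 μM ATP and run to about 50% ATP depletion. Remaining ATP measured by KinaseGlo luminescence.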

Another assay deals with T1, FLT3D835Y kinase (Homo sapiens, UniProt P36888, D835Y).
T1 sequence (P36888 27-993 D835Y): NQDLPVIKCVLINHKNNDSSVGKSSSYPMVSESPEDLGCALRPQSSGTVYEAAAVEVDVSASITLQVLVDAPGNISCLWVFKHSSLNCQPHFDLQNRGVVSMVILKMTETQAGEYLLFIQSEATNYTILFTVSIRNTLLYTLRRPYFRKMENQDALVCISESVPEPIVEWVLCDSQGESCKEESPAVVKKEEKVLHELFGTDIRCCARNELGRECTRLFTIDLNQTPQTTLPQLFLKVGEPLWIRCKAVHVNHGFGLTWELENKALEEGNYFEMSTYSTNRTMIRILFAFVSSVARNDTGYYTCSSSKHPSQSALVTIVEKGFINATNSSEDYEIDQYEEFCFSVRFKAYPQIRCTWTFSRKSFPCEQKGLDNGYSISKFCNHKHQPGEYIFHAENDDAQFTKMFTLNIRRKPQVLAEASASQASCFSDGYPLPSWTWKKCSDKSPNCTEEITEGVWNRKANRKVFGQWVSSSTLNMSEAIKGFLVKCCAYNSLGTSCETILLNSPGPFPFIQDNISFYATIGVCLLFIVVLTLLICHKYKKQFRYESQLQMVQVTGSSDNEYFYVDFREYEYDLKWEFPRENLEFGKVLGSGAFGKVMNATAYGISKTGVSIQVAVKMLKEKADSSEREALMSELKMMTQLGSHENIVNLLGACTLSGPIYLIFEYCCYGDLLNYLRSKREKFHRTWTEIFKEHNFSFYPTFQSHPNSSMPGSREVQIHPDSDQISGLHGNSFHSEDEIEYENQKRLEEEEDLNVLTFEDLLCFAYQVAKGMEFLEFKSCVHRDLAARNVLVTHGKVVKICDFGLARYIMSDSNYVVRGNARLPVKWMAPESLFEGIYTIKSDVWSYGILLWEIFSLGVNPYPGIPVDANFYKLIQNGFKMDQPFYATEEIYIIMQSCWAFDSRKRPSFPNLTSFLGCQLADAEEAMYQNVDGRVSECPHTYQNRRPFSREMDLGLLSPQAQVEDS
Put plainly: FLT3D835Y kinase inhibition assay (LanthaScreen TR-FRET). Type of assay: biochemical. The following applies: read-out: FLT3 IC50. The protocol:
FLT3D835Y Kinase Inhibition Assay
LanthaScreen™ is the detection of Time-Resolved Fluorescence Resonance Energy Transfer (TR-FRET) using lanthanide chelates to measure interactions between various binding partners. The application of TR-FRET to assay kinase activity was first described by Mathis (1995). A TR-FRET assay was used to measure FLT3D835Y kinase inhibitory activity. The assay panel was run on a Biomek FX liquid handling workstations. To the assay plates containing […] compound or control solutions, 4.5 μL of buffer A (50 mM TRIS-HCl pH 7.4, 2 mM DTT, 0.02% Tween 20, 0.02 mM Na3VO4, H2O nanpure) including a generic concentration of ATP (2 μM f.c.) was added per well, followed by […] of buffer B (4 uM ATP in Buffer A) including a generic concentration of polyEAY (50 nM f.c.), FLT3D835Y kinase, and divalent cations. Final concentration of kinase and cations were: [FLT3D835Y kinase]=5.7 nM, [Mg]=3 mM, [Mn]=3 mM. After 1 hour of incubation the kinase reactions were stopped by the addition of 4.5 μL of stop solution D (50 mM EDTA, 20 mM TRIS-HCl pH 7.4, 0.04% NP-40) immediately followed by 4.5 μL of buffer A (50 mM TRIS-HCl pH 7.4, 2 mM DTT, 0.02% Tween 20, 0.02 mM Na3VO4, H2O nanpure) including the Tb-labeled P-20 antibody to give a total detection volume of […]. After an incubation time of 45 min in the dark, the plates were transferred into the Pherastar fluorescence reader for counting. The effect of compound on the enzymatic activity was obtained from the linear progress curves and determined from one reading (end point measurement).
A general note: Time-resolved FRET reads energy transfer from a long-lived donor to a nearby acceptor.

For assay [1], the system named is KMS11 (human myeloma cell line). Put plainly: Cell proliferation assay (CellTiter-Glo), KMS11. Type of assay: cell-based. The following applies: Homo sapiens, KMS-11. In short, it runs like this: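 KMS11 cells in IMDM with 10% FBS and sodium pyruvate, seeded at 2000 cells/well on assay day. Compound added at 2× to equal volume of cells, incubated 3 days at 37° C. Viability read by CellTiter-Glo luminescence; EC50 derived.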

The mark [2] stands for this setting: KMS11 cells, cell proliferation, read-out: KMS11-Luc EC50.

Where two headings read alike, the source gives them in different places.

GSK3β, sequence (P49841 whole entry, species assumed): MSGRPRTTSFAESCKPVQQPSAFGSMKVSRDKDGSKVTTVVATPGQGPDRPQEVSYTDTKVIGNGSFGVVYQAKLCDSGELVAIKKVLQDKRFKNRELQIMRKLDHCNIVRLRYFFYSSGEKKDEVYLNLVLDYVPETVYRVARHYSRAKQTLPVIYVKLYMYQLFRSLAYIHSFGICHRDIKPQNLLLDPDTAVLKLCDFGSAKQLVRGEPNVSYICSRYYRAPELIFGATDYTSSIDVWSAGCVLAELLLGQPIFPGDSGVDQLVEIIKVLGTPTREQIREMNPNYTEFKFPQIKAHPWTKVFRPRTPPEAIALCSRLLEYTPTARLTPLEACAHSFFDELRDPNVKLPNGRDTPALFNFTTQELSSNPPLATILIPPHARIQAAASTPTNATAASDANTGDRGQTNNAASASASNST

On to `CC[C@]1(O)[C@H](O)C[C@H](c2ccncc2NC(=O)c2nc(-c3c(F)cccc3F)ncc2N)O[C@@H]1C` [Example 143, 5-amino-2-(2,6-difluorophenyl)-N-(4-((2R,4R,5S,6R)-5-ethyl-4,5-dihydroxy-6-methyltetrahydro-2H-pyran-2-yl)pyridin-3-yl)pyrimidine-4-carboxamide], for which the IC50 (in general, the concentration needed to halve the response being measured) is 0.102 µM on GSK3β and more than 10 µM on FLT3D835Y kinase. Also, the midpoint of the response in assay [1] (KMS11-Luc cells), the EC50, lay at 1.94 µM.
As to `Nc1ncc(-c2ccccc2)nc1C(=O)Nc1cnccc1[C@@H]1C[C@H](O)[C@]2(O)CCCC[C@@H]2O1` [Example 176, 3-amino-N-(4-((2S,4S,4aR,8aS)-4,4a-dihydroxyoctahydro-2H-chromen-2-yl)pyridin-3-yl)-6-phenylpyrazine-2-carboxamide], the IC50 worked out at 0.0485 µM at GSK3β and 1.1 µM at FLT3D835Y kinase. Besides, the EC50 (as a rule, the concentration needed to bring the measured effect to its halfway point) in assay [1] (KMS11-Luc cells) was 3.6 µM.
Turning to `O=C(Nc1cnccc1[C@H]1C[C@@H](O)[C@@]2(O)CCCC[C@H]2O1)c1c[nH]cc(-c2ccccc2)c1=O` [Example 178, N-(4-((2R,4R,4aS,8aR)-4,4a-dihydroxyoctahydro-2H-chromen-2-yl)pyridin-3-yl)-4-oxo-5-phenyl-1,4-dihydropyridine-3-carboxamide], the figures for the IC50 at GSK3β and at FLT3D835Y kinase were 4.25 µM and more than 10 µM, respectively. In addition, in assay [1] (KMS11-Luc cells), the EC50 is more than 10 µM.
Turning to `Nc1ncc(-c2ccccc2)nc1C(=O)Nc1cnccc1[C@H]1C[C@@H](N)[C@@]2(O)CCC[C@H]2O1` [Example 183, 3-amino-N-(4-((2R,4R,4aS,7aR)-4-amino-4a-hydroxyoctahydrocyclopenta[b]pyran-2-yl)pyridin-3-yl)-6-phenylpyrazine-2-carboxamide], the IC50 at GSK3β (ATP depletion assay) and at FLT3D835Y kinase was 0.0044 µM throughout. The EC50 in assay [1] (setting [2]) came to 1.57 µM.
Take `Nc1ncc(-c2ccccc2)nc1C(=O)Nc1cnccc1[C@@H]1C[C@H](N)[C@]2(O)CCC[C@@H]2O1` [Example 185, 3-amino-N-(4-((2S,4S,4aR,7aS)-4-amino-4a-hydroxyoctahydrocyclopenta[b]pyran-2-yl)pyridin-3-yl)-6-phenylpyrazine-2-carboxamide]: the IC50 stood at 0.67 µM on GSK3β (ATP depletion assay) and 1 µM at FLT3D835Y kinase. In addition, the EC50 in assay [1] (setting [2]) was 9.39 µM.
In the case of `Nc1ncc(-c2ccccc2)nc1C(=O)Nc1cnccc1[C@@H]1C[C@H](O)[C@]2(O)CCC[C@@H]2O1` [Example 186, 3-amino-N-(4-((2S,4S,4aR,7aS)-4,4a-dihydroxyoctahydrocyclopenta[b]pyran-2-yl)pyridin-3-yl)-6-phenylpyrazine-2-carboxamide], the IC50 was determined as 0.04 µM at GSK3β and 1.6 µM on FLT3D835Y kinase. In assay [1] (KMS11-Luc cells), the response was half-maximal at 6.91 µM (EC50).
Turning to `CC[C@]1(O)[C@H](N)C[C@H](c2ccncc2NC(=O)c2nc(-c3ccccc3)cnc2N)O[C@@H]1C` [Example 187, 3-amino-N-(4-((2R,4R,5S,6R)-4-amino-5-ethyl-5-hydroxy-6-methyltetrahydro-2H-pyran-2-yl)pyridin-3-yl)-6-phenylpyrazine-2-carboxamide], the IC50 on GSK3β (ATP depletion assay) amounted to 0.0033 µM; on FLT3D835Y kinase it was 0.0017 µM. The EC50 in assay [1] (setting [2]) amounted to 0.95 µM.
As for `CC[C@]1(O)[C@H](C)O[C@H](c2ccncc2NC(=O)c2nc(-c3ccccc3)cnc2N)C[C@@H]1N` [Example 189, 3-amino-N-(4-((2S,4S,5R,6S)-4-amino-5-ethyl-5-hydroxy-6-methyltetrahydro-2H-pyran-2-yl)pyridin-3-yl)-6-phenylpyrazine-2-carboxamide], the results for the IC50 at GSK3β (ATP depletion assay) and on FLT3D835Y kinase were 0.071 µM and 0.17 µM, respectively. For the same compound, the EC50 in assay [1] (setting [2]) stood at 8.83 µM.
Consider `Nc1ncc(-c2ccccc2)nc1C(=O)Nc1cnccc1[C@H]1C[C@@H](O)[C@@]2(O)CCC[C@H]2O1` [Example 195, 3-amino-N-(4-((2R,4R,4aS,7aR)-4,4a-dihydroxyoctahydrocyclopenta[b]pyran-2-yl)pyridin-3-yl)-6-phenylpyrazine-2-carboxamide], for which the IC50 at GSK3β worked out at 0.001 µM; at FLT3D835Y kinase, 0.0035 µM. This compound also yielded an EC50 in assay [1] (KMS11-Luc cells) of 0.11 µM.
Take `O=C1CC[C@H]2O[C@@H](c3ccncc3NC(=O)c3ccc(F)c(-c4c(F)cccc4F)n3)C[C@@H](O)[C@@H]2N1` [Example 196, 6-(2,6-difluorophenyl)-5-fluoro-N-(4-((2R,4R,4aS,8aR)-4-hydroxy-6-oxooctahydro-2H-pyrano[3,2-b]pyridin-2-yl)pyridin-3-yl)picolinamide]: the results for the IC50 at GSK3β and at FLT3D835Y kinase were 0.645 µM and more than 10 µM, respectively. This compound yielded an EC50 in assay [1] (KMS11-Luc cells) of 8.1 µM.
As to `Nc1ncc(-c2ccccc2)nc1C(=O)Nc1cnccc1[C@H]1C[C@@H](N)[C@@]2(O)CCCC[C@H]2O1` [Example 197, 3-amino-N-(4-((2R,4R,4aS,8aR)-4-amino-4a-hydroxyoctahydro-2H-chromen-2-yl)pyridin-3-yl)-6-phenylpyrazine-2-carboxamide], the IC50 on GSK3β (ATP depletion assay) worked out at 0.008 µM; on FLT3D835Y kinase, 0.0014 µM. Also, the 50% effective concentration (EC50) in assay [1] (setting [2]) was found to be 0.07 µM.
Take `Nc1ncc(-c2ccccc2)nc1C(=O)Nc1cnccc1[C@H]1C[C@@H](N)[C@H]2CCC[C@H]2O1` [Example 199, 3-amino-N-(4-((2R,4R,4aR,7aR)-4-aminooctahydrocyclopenta[b]pyran-2-yl)pyridin-3-yl)-6-phenylpyrazine-2-carboxamide]: the IC50 on GSK3β (ATP depletion assay) was 0.0076 µM; on FLT3D835Y kinase, 0.0018 µM. Besides, in assay [1] (setting [2]), the EC50 was 0.59 µM.
Consider `N[C@@H]1C[C@H](c2ccncc2NC(=O)c2ccc(F)c(-c3c(F)cccc3F)n2)O[C@@H]2CCC[C@]12O` [Example 210, N-(4-((2R,4R,4aS,7aR)-4-amino-4a-hydroxyoctahydrocyclopenta[b]pyran-2-yl)pyridin-3-yl)-6-(2,6-difluorophenyl)-5-fluoropicolinamide], for which the results for the IC50 on GSK3β and at FLT3D835Y kinase were 0.29 µM and 4.2 µM, respectively. The EC50 in assay [1] (KMS11-Luc cells) is 0.64 µM.
With `C[C@]1(O)[C@@H](N)C[C@H](c2ccncc2NC(=O)c2nc(-c3ccccc3)cnc2N)OC12CC2` [Example 351, 3-amino-N-(4-((5R,7S,8S)-7-amino-8-hydroxy-8-methyl-4-oxaspiro[2.5]octan-5-yl)pyridin-3-yl)-6-phenylpyrazine-2-carboxamide], the IC50 on GSK3β (ATP depletion assay) was determined as 0.0004 µM; at FLT3D835Y kinase it was 0.005 µM.
Turning to `C[C@@]1(O)[C@H](N)C[C@@H](c2ccncc2NC(=O)c2nc(-c3ccccc3)cnc2N)OC12CC2` [Example 352, 3-amino-N-(4-((5S,7R,8R)-7-amino-8-hydroxy-8-methyl-4-oxaspiro[2.5]octan-5-yl)pyridin-3-yl)-6-phenylpyrazine-2-carboxamide], the figures for the IC50 on GSK3β (ATP depletion assay) and on FLT3D835Y kinase were 0.0053 µM and 0.0025 µM, respectively.
Consider `C[C@]1(O)[C@H](N)C[C@H](c2ccncc2NC(=O)c2nc(-c3ccccc3)cnc2N)OC12CC2` [Example 353, 3-amino-N-(4-((5R,7R,8S)-7-amino-8-hydroxy-8-methyl-4-oxaspiro[2.5]octan-5-yl)pyridin-3-yl)-6-phenylpyrazine-2-carboxamide], for which the IC50 on GSK3β (ATP depletion assay) worked out at 0.025 µM; on FLT3D835Y kinase it was 0.095 µM.
